Laboratory results reported in ChEMBL document CHEMBL4382200, “Discovery of Novel 7-Aryl 7-Deazapurine 3'-Deoxy-ribofuranosyl Nucleosides with Potent Activity against Trypanosoma cruzi” (J Med Chem, 2018).
pEC50: −log10 of the molar value. Active and inactive are the calls of the source. No cut-off for these calls is given here.

Legend:
[1] = Therapeutic index, ratio EC50 for human MRC5 SV2 cells to EC50 for Trypanosoma cruzi Tulahuen CL2 intracellular amastigotes; format: toxicity, cell-based; conditions: read-out: Ratio EC50
Trypanosoma cruzi [2] = test: Antiparasitic activity against Trypanosoma cruzi Tulahuen CL2 intracellular amastigotes expressing beta-galactosidase infected in human MRC5 SV2 cells after 7 days by chlorophenol red beta-D-galactopyranoside-based spectrophotometric analysis; format: functional, organism-based; conditions: Tulahuen CL2, MRC-5 SV2, 168 h
[3] = Cytotoxicity against human MRC5 SV2 cells assessed as reduction in cell viability after 3 days resazurin-based fluorimetric assay; conditions: MRC-5 SV2, 72 h
Trypanosoma cruzi [4] = test: Antiparasitic activity against Trypanosoma cruzi Y strain bloodstream trypomastigotes infected in Swiss Webster mouse assessed as decrease in parasitemia at 100 mg/kg, po sid via gavage administered for 5 consecutive days measured at day 8 post infection by direct microscopic counting; format: functional, organism-based
Trypanosoma cruzi [5] = test: Antiparasitic activity against Trypanosoma cruzi Y strain bloodstream trypomastigotes infected in Swiss Webster mouse at 100 mg/kg, po sid via gavage administered for 5 consecutive days starting from day 5 post infection followed by cyclophosphamide-induced immunosuppression on day 40 post infection for 4 consecutive days; format: functional, organism-based
Trypanosoma cruzi [6] = test: Trypanocidal activity against Trypanosoma cruzi Y strain bloodstream trypomastigotes isolated from infected Swiss mouse […] assessed as parasite death after 24 hrs by neubauer chamber based light microscopy; format: functional, organism-based
[7] = Cytotoxicity against Swiss mouse embryonic cardiomyocytes assessed as reduction in cell viability after 24 hrs by prestoblue-staining based colorimetry; conditions: Cardiac muscle cell
Trypanosoma cruzi [8] = test: Trypanocidal activity against Trypanosoma cruzi Y strain intracellular amastigotes infected in mouse cardiac cells assessed as parasite death after 168 hrs by Giemsa-staining based assay; format: functional, organism-based
Trypanosoma cruzi [9] = test: (§1) Antiparasitic activity against Trypanosoma cruzi Y strain bloodstream trypomastigotes infected in Swiss Webster mouse assessed as protection against parasite-induced mortality at 100 mg/kg, po sid via gavage administered for 5 consecutive days starting from day 5 post infection measured at day 15 post infection; format: functional, organism-based
Trypanosoma cruzi [10] = test: as §1, with “25” for “100”, “bid” for “sid”; format: functional, organism-based
Cytochrome P450 [11] = test: Drug metabolism in human liver microsome S9 fraction assessed as CYP450-mediated metabolism by measuring compound remaining at 5 uM pretreated with NADPH and measured after 60 mins by UPLC-MS/MS analysis; format: ADME, microsomes; conditions: microsomes, 1 h, 5 µM
[12] = Drug metabolism in rat liver microsome S9 fraction assessed as CYP450-mediated metabolism by measuring compound remaining at 5 uM pretreated with NADPH and measured after 15 mins by UPLC-MS/MS analysis; format: ADME, microsomes; conditions: microsomes, 0.25 h, 5 µM
[13] = Drug metabolism in mouse liver microsome S9 fraction assessed as CYP450-mediated metabolism by measuring compound remaining at 5 uM pretreated with NADPH and measured after 60 mins by UPLC-MS/MS analysis; format: ADME, microsomes; conditions: microsomes, 1 h, 5 µM
[14] = Drug metabolism in rat liver microsome S9 fraction assessed as CYP450-mediated metabolism by measuring compound remaining at 5 uM pretreated with NADPH and measured after 30 mins by UPLC-MS/MS analysis; format: ADME, microsomes; conditions: microsomes, 0.5 h, 5 µM
Cytochrome P450 [15] = test: Drug metabolism in human liver microsome S9 fraction assessed as CYP450-mediated metabolism by measuring compound remaining at 5 uM pretreated with NADPH and measured after 15 mins by UPLC-MS/MS analysis; format: ADME, microsomes; conditions: microsomes, 0.25 h, 5 µM
[16] = Drug metabolism in dog liver microsome S9 fraction assessed as CYP450-mediated metabolism by measuring compound remaining at 5 uM pretreated with NADPH and measured after 60 mins by UPLC-MS/MS analysis; format: ADME, microsomes, Canis lupus familiaris; conditions: microsomes, 1 h, 5 µM
[17] = Drug metabolism in dog liver microsome S9 fraction assessed as CYP450-mediated metabolism by measuring compound remaining at 5 uM pretreated with NADPH and measured after 15 mins by UPLC-MS/MS analysis; format: ADME, microsomes, Canis lupus familiaris; conditions: microsomes, 0.25 h, 5 µM
Cytochrome P450 [18] = test: Drug metabolism in human liver microsome S9 fraction assessed as CYP450-mediated metabolism by measuring compound remaining at 5 uM pretreated with NADPH and measured after 30 mins by UPLC-MS/MS analysis; format: ADME, microsomes; conditions: microsomes, 0.5 h, 5 µM
[19] = Drug metabolism in dog liver microsome S9 fraction assessed as CYP450-mediated metabolism by measuring compound remaining at 5 uM pretreated with NADPH and measured after 30 mins by UPLC-MS/MS analysis; format: ADME, microsomes, Canis lupus familiaris; conditions: microsomes, 0.5 h, 5 µM
[20] = Drug metabolism in mouse liver microsome S9 fraction assessed as CYP450-mediated metabolism by measuring compound remaining at 5 uM pretreated with NADPH and measured after 30 mins by UPLC-MS/MS analysis; format: ADME, microsomes; conditions: microsomes, 0.5 h, 5 µM
[21] = Drug metabolism in mouse liver microsome S9 fraction assessed as CYP450-mediated metabolism by measuring compound remaining at 5 uM pretreated with NADPH and measured after 15 mins by UPLC-MS/MS analysis; format: ADME, microsomes; conditions: microsomes, 0.25 h, 5 µM
[22] = Drug metabolism in rat liver microsome S9 fraction assessed as CYP450-mediated metabolism by measuring compound remaining at 5 uM pretreated with NADPH and measured after 60 mins by UPLC-MS/MS analysis; format: ADME, microsomes; conditions: microsomes, 1 h, 5 µM

| Compound | selectivity ratio [1] | pEC50 (Trypanosoma cruzi [2]; read-out: EC50) | pEC50 [3] | other results |
| --- | --- | --- | --- | --- |
| Cc1ccc(-c2cn([C@@H]3O[C@H](CO)C[C@H]3O)c3ncnc(N)c23)cc1C | 16 | 5.86 | 4.65 | – |
| Nc1ncnc2c1c(-c1ccc(F)cc1)cn2[C@@H]1O[C@H](CO)C[C@H]1O | > 100 | 6.19 | < 4.19 | – |
| CC(C)c1ccc(-c2cn([C@@H]3O[C@H](CO)C[C@H]3O)c3ncnc(N)c23)cc1 | 2.9 | 5.07 | 4.60 | – |
| O=C(Cn1ccnc1[N+](=O)[O-])NCc1ccccc1 [BENZNIDAZOLE] | – | – | – | Activity (Trypanosoma cruzi [4]): Active; Activity (Trypanosoma cruzi [5]): inactive; pEC50 (Trypanosoma cruzi [6]): 4.94; pEC50 (Trypanosoma cruzi [2]): 5.64; pEC50 [7]: < 3.40; pEC50 (Trypanosoma cruzi [8]): 6.45; Activity (Trypanosoma cruzi [9]): Active; Activity (Trypanosoma cruzi [10]): Active |
| Cc1cc(-c2cn([C@@H]3O[C@H](CO)C[C@H]3O)c3ncnc(N)c23)ccc1Cl | 80 | 6.68 | 4.78 | – |
| OC(Cn1cncn1)(Cn1cncn1)c1ccc(F)cc1F [FLUCONAZOLE] | – | – | – | Stability (Cytochrome P450 [11]): Stable; Stability [12]: Stable; Stability [13]: Stable; Stability [14]: Stable; Stability (Cytochrome P450 [15]): Stable; Stability [16]: Stable; Stability [17]: Stable; Stability (Cytochrome P450 [18]): Stable; Stability [19]: Stable; Stability [20]: Stable; Stability [21]: Stable; Stability [22]: Stable |
| COc1ccc(-c2cn([C@@H]3O[C@H](CO)C[C@H]3O)c3ncnc(N)c23)cc1Cl | > 19 | 5.48 | < 4.19 | – |
| Nc1ncnc2c1c(-c1ccc(Cl)cc1Cl)cn2[C@@H]1O[C@H](CO)C[C@H]1O | 44 | 6.35 | 4.71 | – |
| CCc1ccc(-c2cn([C@@H]3O[C@H](CO)C[C@H]3O)c3ncnc(N)c23)cc1 | 18 | 5.98 | 4.74 | – |
| Nc1ncnc2c1c(-c1cc(Cl)cc(Cl)c1)cn2[C@@H]1O[C@H](CO)C[C@H]1O | 55 | 6.26 | 4.52 | – |
| COc1ccc(-c2cn([C@@H]3O[C@H](CO)C[C@H]3O)c3ncnc(N)c23)cc1 | 10 | 5.62 | 4.61 | – |
| Nc1ncnc2c1c(-c1ccc([N+](=O)[O-])cc1)cn2[C@@H]1O[C@H](CO)C[C@H]1O | > 53 | 5.92 | < 4.19 | – |
| Nc1ncnc2c1c(-c1ccc(F)c(Cl)c1)cn2[C@@H]1O[C@H](CO)C[C@H]1O | 150 | 6.52 | 4.34 | – |
| Cc1cccc(-c2cn([C@@H]3O[C@H](CO)C[C@H]3O)c3ncnc(N)c23)c1 | > 12 | 5.29 | < 4.19 | – |
